Measured values published in patent publication US20260258420A1, “COMPOSITIONS AND METHODS FOR THE TREATMENT OF HUMAN PAPILLOMAVIRUS-DRIVEN CANCERS” (priority 2023, published 2026).

Columns and labels:
[1] = test system: HN31 cells stably transfected with an E7 plasmid; test: Apoptosis in HPV-negative cells overexpressing E7; assay type: cell-based; conditions: 300 nmol/L, 24 hours
Procedure: Each data point represents 1 cell line. Box plots show the median pRb […] levels and 95% confidence intervals across all cell lines in the category. t-test P=0.0097. FIG. 4B, HPV-negative HNSCC cells (HN31, UMSCC4, and MDA886LN) were infected with distinct, lentivirus-based shRNAs (Sh2, Sh4, and Sh6) to stably knock down the expression of RB1 or were treated with control (Ctrl) shRNA. Cells were then treated with 300 nmol/L alisertib for 24 hours before annexin V-PE/7AAD staining and analysis with flow cytometry. The bar graph represents the ratio of apoptosis (late plus early) among different groups. Values are the means±the standard deviations for 3 independent experiments. *P<0.05; **P<0.005; unpaired, 2-tailed Student t-test. FIG. 4C, cells from FIG. 4B were treated with 300 nmol/L alisertib for 24 hours before lysis and immunoblotting with the indicated antibodies. FIG. 4D-E, HN31 cells were stably transfected with an E7 plasmid and treated with 300 nmol/L alisertib for 24 hours before lysis and immunoblotting with (FIG. 4D) the indicated antibodies or (FIG. 4E) annexin-PE staining to measure apoptosis. Values are the means±the standard deviations for 3 independent experiments. ** P≤0.01; *** P≤0.001. FIG. 4F, two HPV-positive cell lines were transfected with 10 nmol/L siRNA oligonucleotides specific to E7 or with control oligonucleotides. […]

[2] = test system: HN31 and MDA886LN cells expressing RB1 shRNA; test: Apoptosis with TRIP13 overexpression, RB1-knockdown HPV-negative cells; assay type: cell-based; conditions: 300 nmol/L
Procedure: FIG. 5A, two HPV-positive cell lines (CASKI and SIHA) were transfected with BUB1B or MAD2L1 siRNA and then treated for 24 hours with 300 nmol/L alisertib before lysis and immunoblotting with the indicated antibodies. FIG. 5B, TRIP13 was transiently overexpressed (Ox) in 2 HPV-positive cell lines that were treated for 24 hours with 300 nmol/L alisertib before lysis and immunoblotting for the indicated proteins. FIG. 5C, HPV-positive cell lines with TRIP13 overexpression were treated with 300 nmol/L alisertib for 32 hours and then stained for annexin V-PE/7AAD staining and analysis with flow cytometry to measure apoptosis. The bar graph represents the ratio of apoptosis (late plus early) among different groups. Values are the means±the standard deviations for 3 independent experiments. ** P≤0.01; *** P≤0.001; unpaired, 2-tailed Student t-test. FIG. 5D, HN31 (left panel) and MDA886LN (right panel) cells expressing RB1 or control shRNA were transfected with a plasmid for TRIP13. After 24 hours, cells were treated with 300 nmol/L alisertib and then lysed for immunoblotting. Cl, cleaved; Fl, full length; GAPDH, glyceraldehyde 3-phosphate dehydrogenase.
In normal cells, prolonged mitosis resulting from Mad2 overexpression can lead to G1 arrest or mitotic cell death, so it is unclear why Mad2 overexpression is tolerated in HPV-positive cancers. […]

[3] = human clinical trials; cited from earlier work
[4] = test system: 16 HPV-positive HNSCC and cervical squamous cancer cell lines; test: High-throughput drug screen (HTDS), cell death by AOC_LD, HPV-positive cell lines; assay type: cell-based
Procedure: The concordance correlation coefficient was computed to assess the reproducibility of the normalized growth rates of the 2 replicates. […] A chi-square test was applied to compare drug classification and the cluster membership. The Fisher exact test was applied to compare mutations status (wild-type and mutant) and drugs' response data (sensitive and resistant).
The effects of 864 unique drugs from 51 classes was tested in 16 HPV-positive and 17 HPV-negative HNSCC and cervical squamous cancer cell lines (Table 2) that were characterized previously (Kaiu, et al., Oncotarget 2017; 8(49):86369-83).

For `COc1cc(Nc2ncc3c(n2)-c2ccc(Cl)cc2C(c2c(F)cccc2OC)=NC3)ccc1C(=O)O` [ALISERTIB, alisertib], the “apoptosis (cleaved caspase-3, PARP, annexin V)” value [1] is listed as “selectively enhanced apoptosis”, the “apoptosis with TRIP13 overexpression” value [2] is listed as “reduced apoptosis” and the common toxicities [3] is listed as “anemia, thrombocytopenia, and neutropenia”. For the same molecule, the “HPV positive Resistant (number of cell lines)” value ([4]; resistant = AOC_LD 0) was 6 and the “HPV positive Sensitive (number of cell lines)” value ([4]; sensitive = AOC_LD greater than 0) was 10.
